How the values were obtained:
[1] = test system: Methicillin Resistant Staphylococcus aureus strain USA 200; test: Minimum inhibitory concentration (MIC), CLSI broth micro-dilution, S. aureus; type: cell-based; settings: Staphylococcus aureus, MRSA / USA200; Table 6; MRSA USA 200; cation adjusted Mueller Hinton Broth + 0.002% Tween-80; 35° C., 22 hours
Outline: (§1)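 Antibacterial potency is measured as MIC by the CLSI broth dilution method. Bacteria at OD600 0.0005 in Tween-80-supplemented cation-adjusted Mueller Hinton broth face ten twofold compound dilutions for 22 h at 35° C.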

[2] = test system: Escherichia coli ATCC 25922; test: Minimum inhibitory concentration (MIC), CLSI broth micro-dilution, E. coli; type: cell-based; settings: Escherichia coli, ATCC25922, 22 h, Table 6, cation adjusted Mueller Hinton Broth + 0.002% Tween-80, 35° C.
Outline: as §1

| Compound | MIC [1] [µM] | MIC [2] [µM] |
| --- | --- | --- |
| Cc1nc(-c2ccc(OC(C)(C)C)cc2)ncc1C(=O)N[C@@H](CCN)C(=O)N(C)[C@@H]1C(=O)N[C@@H](C)C(=O)N[C@H](C(=O)NCC#N)Cc2ccc(OCCN)c(c2)-c2cc1ccc2OCCN (racemic) [Compound 250, rac-(8S,11S,14S)-3,18-bis(2-aminoethoxy)-N-(cyanomethyl)-11-methyl-14-[methyl-[rac-(2S)-4-amino-2-[[2-(4-tert-butoxyphenyl)-4-methyl-pyrimidine-5-carbonyl]amino]butanoyl]amino]-10,13-dioxo-9,12-diazatricyclo[13.3.1.12,6]icosa-1(18),2(20),3,5,15(19),16-hexaene-8-carboxamide] | 0.066 | 0.35 |
| C[C@@H]1NC(=O)[C@@H](N(C)C(=O)[C@H](CCN)NC(=O)c2cnc(-c3ccc(C(C)(C)C)cc3)nc2O)c2ccc(OCCN)c(c2)-c2cc(ccc2OCCN)C[C@@H](C(=O)NCC#N)NC1=O (racemic) [Compound 419, rac-(8S,11S,14S)-3,18-bis(2-aminoethoxy)-N-(cyanomethyl)-11-methyl-14-[methyl-[rac-(2S)-4-amino-2-[[2-(4-tert-butylphenyl)-4-hydroxy-pyrimidine-5-carbonyl]amino]butanoyl]amino]-10,13-dioxo-9,12-diazatricyclo[13.3.1.12,6]icosa-1(18),2(20),3,5,15(19),16-hexaene-8-carboxamide] | 0.063 | 8 |
| Cc1nc(C#Cc2ccccc2)nc(C)c1C(=O)N[C@@H](CCN)C(=O)N(C)[C@@H]1C(=O)N[C@@H](C)C(=O)N[C@H](C(=O)NCC#N)Cc2ccc(OCCN)c(c2)-c2cc1ccc2OCCN (racemic) [Compound 309, rac-(8S,11S,14S)-3,18-bis(2-aminoethoxy)-N-(cyanomethyl)-11-methyl-14-[methyl-[rac-(2S)-4-amino-2-[[4,6-dimethyl-2-(2-phenylethynyl)pyrimidine-5-carbonyl]amino]butanoyl]amino]-10,13-dioxo-9,12-diazatricyclo[13.3.1.12,6]icosa-1(18),2(20),3,5,15(19),16-hexaene-8-carboxamide] | 0.27 | 1.1 |
| Cc1nc(-c2ccc(N3CCCC3)cc2)nc(C)c1C(=O)N[C@@H](CCN)C(=O)N(C)[C@@H]1C(=O)N[C@@H](C)C(=O)N[C@H](C(=O)NCC#N)Cc2ccc(OCCN)c(c2)-c2cc1ccc2OCCN (racemic) [Compound 321, rac-(8S,11S,14S)-3,18-bis(2-aminoethoxy)-N-(cyanomethyl)-11-methyl-14-[methyl-[rac-(2S)-4-amino-2-[[4,6-dimethyl-2-(4-pyrrolidin-1-ylphenyl)pyrimidine-5-carbonyl]amino]butanoyl]amino]-10,13-dioxo-9,12-diazatricyclo[13.3.1.12,6]icosa-1(18),2(20),3,5,15(19),16-hexaene-8-carboxamide] | 0.047 | 0.38 |
| Cc1cc(-c2ccc(OC(C)C)cc2)nc(C)c1C(=O)N[C@@H](CCN)C(=O)N(C)[C@@H]1C(=O)N[C@@H](C)C(=O)N[C@H](C(=O)NCC#N)Cc2ccc(OCCN)c(c2)-c2cc1ccc2OCCN (racemic) [Compound 360, rac-(8S,11S,14S)-3,18-bis(2-aminoethoxy)-N-(cyanomethyl)-11-methyl-14-[methyl-[rac-(2S)-4-amino-2-[[6-(4-isopropoxyphenyl)-2,4-dimethyl-pyridine-3-carbonyl]amino]butanoyl]amino]-10,13-dioxo-9,12-diazatricyclo[13.3.1.12,6]icosa-1(18),2(20),3,5,15(19),16-hexaene-8-carboxamide] | 0.066 | 0.26 |
| Cc1nc(-c2ccc3c(c2)OCCC32CC2)nc(C)c1C(=O)N[C@@H](CCN)C(=O)N(C)[C@@H]1C(=O)N[C@@H](C)C(=O)N[C@H](C(=O)NCC#N)Cc2ccc(OCCN)c(c2)-c2cc1ccc2OCCN (racemic) [Compound 285, rac-(8S,11S,14S)-3,18-bis(2-aminoethoxy)-N-(cyanomethyl)-11-methyl-14-[methyl-[rac-(2S)-4-amino-2-[(4,6-dimethyl-2-spiro[chromane-4,1′-cyclopropane]-7-yl-pyrimidine-5-carbonyl)amino]butanoyl]amino]-10,13-dioxo-9,12-diazatricyclo[13.3.1.12,6]icosa-1(18),2(20),3,5,15(19),16-hexaene-8-carboxamide] | 0.047 | 0.19 |
| CCCCCOc1ccc(-c2nc(C)c(C(=O)N[C@@H](CCN)C(=O)N(C)[C@@H]3C(=O)N[C@@H](C)C(=O)N[C@H](C(=O)NCC#N)Cc4ccc(OCCN)c(c4)-c4cc3ccc4O)c(C)n2)cc1 (racemic) [Compound 536, rac-(8S,11S,14S)-3-(2-aminoethoxy)-N-(cyanomethyl)-18-hydroxy-11-methyl-14-[methyl-[rac-(2S)-4-amino-2-[[4,6-dimethyl-2-(4-pentoxyphenyl)pyrimidine-5-carbonyl]amino]butanoyl]amino]-10,13-dioxo-9,12-diazatricyclo[13.3.1.12,6]icosa-1(18),2(20),3,5,15(19),16-hexaene-8-carboxamide] | 0.016 | 0.13 |
| C[C@@H]1NC(=O)[C@@H](N(C)C(=O)[C@H](CCN)NC(=O)c2ccc(-c3ccc(C(C)(C)C)cc3)nc2N)c2ccc(OCCN)c(c2)-c2cc(ccc2OCCN)C[C@@H](C(=O)NCC#N)NC1=O (racemic) [Compound 412, rac-(8S,11S,14S)-3,18-bis(2-aminoethoxy)-N-(cyanomethyl)-11-methyl-14-[methyl-[rac-(2S)-4-amino-2-[[2-amino-6-(4-tert-butylphenyl)pyridine-3-carbonyl]amino]butanoyl]amino]-10,13-dioxo-9,12-diazatricyclo[13.3.1.12,6]icosa-1(18),2(20),3,5,15(19),16-hexaene-8-carboxamide] | 0.023 | 0.5 |

Now from value to molecule:

| MIC [1] [µM] | MIC [2] [µM] | Compound |
| --- | --- | --- |
| 0.025 | 0.27 | Cc1nc(-c2ccc(C(C)(C)C)cc2)ncc1C(=O)N[C@@H](CN)C(=O)N(C)[C@@H]1C(=O)N[C@@H](C)C(=O)N[C@H](C(=O)NCC#N)Cc2ccc(OCCN)c(c2)-c2cc1ccc2OCCN (racemic) [Compound 457, rac-(8S,11S,14S)-3,18-bis(2-aminoethoxy)-N-(cyanomethyl)-11-methyl-14-[methyl-[rac-(2S)-3-amino-2-[[2-(4-tert-butylphenyl)-4-methyl-pyrimidine-5-carbonyl]amino]propanoyl]amino]-10,13-dioxo-9,12-diazatricyclo[13.3.1.12,6]icosa-1(18),2(20),3,5,15(19),16-hexaene-8-carboxamide] |
| 0.023 | 0.12 | Cc1nc(-c2ccc(C(C)(C)C)cc2)nc(N)c1C(=O)N[C@@H](CCN)C(=O)N(C)[C@@H]1C(=O)N[C@@H](C)C(=O)N[C@H](C(=O)NCC#N)Cc2ccc(OCCN)c(c2)-c2cc1ccc2OCCN (racemic) [Compound 426, rac-(8S,11S,14S)-3,18-bis(2-aminoethoxy)-N-(cyanomethyl)-11-methyl-14-[methyl-[rac-(2S)-4-amino-2-[[4-amino-2-(4-tert-butylphenyl)-6-methyl-pyrimidine-5-carbonyl]amino]butanoyl]amino]-10,13-dioxo-9,12-diazatricyclo[13.3.1.12,6]icosa-1(18),2(20),3,5,15(19),16-hexaene-8-carboxamide] |
| 0.047 | 0.25 | Cc1nc(-c2ccc3c(c2)CCC3(C)C)nc(C)c1C(=O)N[C@@H](CCN)C(=O)N(C)[C@@H]1C(=O)N[C@@H](C)C(=O)N[C@H](C(=O)NCC#N)Cc2ccc(O)c(c2)-c2cc1ccc2OCCN (racemic) [Compound 531, rac-(8S,11S,14S)-18-(2-aminoethoxy)-N-(cyanomethyl)-3-hydroxy-11-methyl-14-[methyl-[rac-(2S)-4-amino-2-[[2-(1,1-dimethylindan-5-yl)-4,6-dimethyl-pyrimidine-5-carbonyl]amino]butanoyl]amino]-10,13-dioxo-9,12-diazatricyclo[13.3.1.12,6]icosa-1(18),2(20),3,5,15 8-carboxamide] |
| 0.023 | 0.38 | CCCc1nc(-c2ccc(C(C)(C)C)cc2)nc(C)c1C(=O)N[C@@H](CCN)C(=O)N(C)[C@@H]1C(=O)N[C@@H](C)C(=O)N[C@H](C(=O)NCC#N)Cc2ccc(OCCN)c(c2)-c2cc1ccc2OCCN [Compound 486] |
| 0.0085 | 0.11 | Cc1nc(-c2ccc(C(C)(C)C)cc2)ncc1C(=O)N[C@@H](CCN)C(=O)N[C@@H]1C(=O)N[C@@H](C)C(=O)N[C@H](C(=O)NCC#N)Cc2ccc(OCCN)c(c2)-c2cc1ccc2OCCN (racemic) [Compound 472, rac-(8S,11S,14S)-3,18-bis(2-aminoethoxy)-N-(cyanomethyl)-11-methyl-10,13-dioxo-14-[[rac-(2S)-4-amino-2-[[2-(4-tert-butylphenyl)-4-methyl-pyrimidine-5-carbonyl]amino]butanoyl]amino]-9,12-diazatricyclo[13.3.1.12,6]icosa-1(18),2(20),3,5,15(19),16-hexaene-8-carboxamide] |
| 0.55 | 4.4 | CCCCCCCc1ccc(C(=O)N[C@@H](CS)C(=O)N(C)[C@@H]2C(=O)N[C@@H](C)C(=O)N[C@H](C(=O)NCC#N)Cc3ccc(OCCN)c(c3)-c3cc2ccc3OCCN)c(C)c1 (racemic) [Compound 454, rac-(8S,11S,14S)-3,18-bis(2-aminoethoxy)-N-(cyanomethyl)-11-methyl-14-[methyl-[rac-(2R)-2-[(4-heptyl-2-methyl-benzoyl)amino]-3-sulfanyl-propanoyl]amino]-10,13-dioxo-9,12-diazatricyclo[13.3.1.12,6]icosa-1(18),2(20),3,5,15(19),16-hexaene-8-carboxamide] |

From patent publication US20260274892A1, “MACROCYCLIC BROAD SPECTRUM ANTIBIOTICS” (RQx Pharmaceuticals, Inc., priority 2017, published 2026)
